These molecules were tested on GTP-loaded KRAS proteins (residue 1-169 of KRAS4B) (assay: RAS GTP hydrolysis rate assay (GTPase-Glo) with cyclophilin A). Settings: 10 μM compound, 25 μM cyclophilin A, 37° C.
Assay type: biochemical
Procedure: (§1) The rate of RAS GTP hydrolysis was assayed in the presence of various KRAS mutations. To assess GTP hydrolysis activity, recombinant KRAS proteins (residue 1-169 of KRAS4B) were expressed in E. coli and purified using a TEV protease-cleavable His6-tag and Ni^2+ affinity chromatography. The His6 tag was removed by treatment with TEV protease, and the KRAS protein was isolated by passing through a second Ni^2+ column followed by size exclusion chromatography. The purified KRAS proteins were loaded with GTP by incubation for 2 hours on ice with 2 mM GTP and 10 mM Ethylenediaminetetraacetic Acid, followed by addition of 10 mM MgCl2 and incubation on ice for 1 additional hour. The excess GTP was removed by overnight dialysis against buffer (12.5 mM HEPES, 75 mM NaCl, pH 7.5) at 4° C. The GTP-loaded KRAS protein were flash frozen in liquid nitrogen, then stored at −80° C. until use.
(§2) GTP-loaded KRAS proteins (1 μM) were combined with 25 μM of recombinant human cyclophilin A and 10 μM of compound in reaction buffer (12.5 mM HEPES, 75 mM NaCl, 1 mM MgCl2, 1 mM DTT, 1% DMSO, pH 7.5) pre-warmed to 37° C. At fixed time points, aliquots were removed and quenched by heating to 80° C. to denature the proteins, then centrifuged to pellet the protein precipitate. The supernatant was assessed for GTP levels using Promega GTPase-Glo™ according to manufacturer instructions. The levels of GTP as a function of incubation time were fit to a single phase exponential decay to determine the rate constant for hydrolysis activity.

RAS GTP hydrolysis activation	Structure (SMILES)
does not activate GTP hydrolysis	CCn1c(-c2cccnc2[C@H](C)OC)c2c3cc(ccc31)-c1cc(O)cc(c1)C[C@H](NC(=O)[C@H](C(C)C)N(C)C(=O)C1(C#N)CC1)C(=O)N1CCC[C@H](N1)C(=O)OCC(C)(C)C2 (racemic) [Compound F, reference compound]

Each molecule was assayed against T1, GTP-loaded KRAS proteins (residue 1-169 of KRAS4B) (Homo sapiens, UniProt P01116, G12V) in the same assay as above. Settings: bound in tri-complex with cyclophilin A; in some embodiments KRAS^G12V is the isoform used.
T1 construct: recombinant KRAS proteins (residue 1-169 of KRAS4B); His6 (TEV protease-cleavable) (cleaved yes); made in house; host or cells: E. coli
Assay type: biochemical
Procedure: as §1, §2

Structure (SMILES)	hydrolyzer class: RAS(ON) GTP hydrolysis rate relative to the intrinsic hydrolysis rate
CO[C@@H](C)c1ncccc1-c1c2c3cc(ccc3n1CC(F)(F)F)CCN(C)C[C@H](NC(=O)[C@H]1C[C@@H]1C)C(=O)N1CCC[C@H](N1)C(=O)OCC(C)(C)C2 (atropisomer, axis not shown) [compound 9]	9 Weak
CCn1c(-c2cc(N3CCN(C)CC3)cnc2[C@H](C)OC)c2c3cc(ccc31)-c1csc(n1)C[C@H](NC(=O)[C@H](C(C)C)N(C)C(=O)N(C)C)C(=O)N1CCC[C@H](N1)C(=O)OCC(C)(C)C2 (atropisomer, axis not shown) [compound 13]	13 Moderate
CCn1c(-c2cccnc2[C@H](C)OC)c2c3cc(ccc31)-c1csc(n1)C[C@H](NC(=O)[C@H](C(C)C)N(C)C(=O)N1CC(OC)C1)C(=O)N1CCC[C@H](N1)C(=O)OCC(C)(C)C2 (atropisomer, axis not shown) [compound 19]	19 Moderate
CCn1c(-c2cc(N3CCN(C)CC3)cnc2[C@H](C)OC)c2c3cc(ccc31)N1CCO[C@@H](C[C@H](NC(=O)[C@H]3C[C@@H]3C)C(=O)N3CCC[C@H](N3)C(=O)OCC(C)(C)C2)C1 (atropisomer, axis not shown) [compound 22]	22 Weak
CCn1c(-c2cc(N3CCN(C)CC3)cnc2[C@H](C)OC)c2c3cc(ccc31)-c1csc(n1)C[C@H](NC(=O)[C@H](C(C)C)N(C)C(=O)N1CC(N(C)C)C1)C(=O)N1CCC[C@H](N1)C(=O)OCC(C)(C)C2 (atropisomer, axis not shown) [compound 14]	14 Moderate
CO[C@@H](C)c1ncccc1-c1c2c3cc(ccc3n1CC(F)(F)F)CCOC[C@H](NC(=O)[C@H]1C[C@@H]1C)C(=O)N1CCC[C@H](N1)C(=O)OCC(C)(C)C2 (atropisomer, axis not shown) [compound 10]	10 Moderate

The next lines start with the values.

hydrolyzer class: RAS(ON) GTP hydrolysis rate relative to the intrinsic hydrolysis rate	Structure (SMILES)
18 Weak	CCO[C@@H]1c2nc(cs2)-c2ccc3c(c2)c(c(-c2cc(N4CCN(C)CC4)cnc2[C@H](C)OC)n3CCOC(C)C)CC(C)(C)COC(=O)[C@@H]2CCCN(N2)C(=O)[C@H]1NC(=O)N1CC[C@H]1C (atropisomer, axis not shown) [compound 18]
16 Moderate	CCO[C@@H]1c2nc(cs2)-c2ccc3c(c2)c(c(-c2cc([C@@H]4CCN5CCOC[C@@H]5C4)cnc2[C@H](C)OC)n3CC)CC(C)(C)COC(=O)[C@@H]2CCCN(N2)C(=O)[C@H]1NC(=O)[C@H]1[C@H](C)[C@@H]1C (atropisomer, axis not shown) [compound 16]
21 Weak	CCn1c(-c2cc(N3CCN(C)CC3)cnc2[C@H](C)OC)c2c3cc(ccc31)-c1cccc(n1)C[C@H](NC(=O)[C@H]1C[C@@H]1C)C(=O)N1CCC[C@H](N1)C(=O)OCC(C)(C)C2 (atropisomer, axis not shown) [compound 21]
15 Moderate	CCO[C@@H]1c2nc(cs2)-c2ccc3c(c2)c(c(-c2cc(N4CCN(C)CC4)cnc2[C@H](C)OC)n3CC)CC(C)(C)COC(=O)[C@@H]2CCCN(N2)C(=O)[C@H]1NC(=O)[C@H]1[C@H](C)[C@@H]1C (atropisomer, axis not shown) [compound 15]
11 Moderate	CO[C@@H](C)c1ncc(N2CCN(C)CC2)cc1-c1c2c3cc(ccc3n1CC(F)(F)F)-c1csc(n1)C[C@H](NC(=O)[C@H]1C[C@@H]1C)C(=O)N1CCC[C@H](N1)C(=O)OCC(C)(C)C2 (atropisomer, axis not shown) [compound 11]
17 Weak	CCO[C@@H]1c2nc(cs2)-c2ccc3c(c2)c(c(-c2cccnc2[C@H](C)OC)n3CC)CC(C)(C)COC(=O)[C@@H]2CCCN(N2)C(=O)[C@H]1NC(=O)[C@@H]1[C@@H](C)[C@H]1C(=O)N(C)C (atropisomer, axis not shown) [compound 17]
12 Moderate	CCn1c(-c2cc(N3CCN(C)CC3)cnc2[C@H](C)OC)c2c3cc(ccc31)-c1csc(n1)C[C@H](NC(=O)[C@H]1C[C@@H]1C)C(=O)N1CCC[C@H](N1)C(=O)OCC(C)(C)C2 (atropisomer, axis not shown) [compound 12]
20 Weak	CCn1c(-c2cc(N3CCN(C)CC3)cnc2[C@H](C)OC)c2c3cc(ccc31)-c1cccc(c1)C[C@H](NC(=O)[C@H]1C[C@@H]1C)C(=O)N1CCC[C@H](N1)C(=O)OCC(C)(C)C2 (atropisomer, axis not shown) [compound 20]
